Test results as given in paper PMC8879496 (Pharmaceutics, 2022).
Read-outs that look alike come from different tables or passages of the source.

Columns and labels:
SARS-CoV-2 Mpro = SARS-CoV-2 Mpro (Severe acute respiratory syndrome coronavirus 2, UniProt P0DTD1); test: SARS-CoV-2 Mpro activity assay (assay kit, fluorescence); assay type: biochemical
Procedure: SARS-CoV-2 Mpro activity was measured using the SARS-CoV-2 Mpro assay kit (BPS Bioscience, San Diego, CA, USA) according to the manufacturer’s instructions. The samples were evaluated in duplicated, serially diluted concentrations. The fluorescence intensity of low binding, black, 96-well microtiter plates was detected at an excitation wavelength of 360 nm and an emission wavelength of 460 nm using a microplate spectrophotometer (Bio-Tek, Winooski, VT, USA).

MERS-CoV = test: microbe, parasite or virus in culture; assay type: cell-based; details: Middle East respiratory syndrome-related coronavirus, Vero, 24 h, read-out: IC50, MERS-CoV inhibition, Vero cells, 0.0625 MOI, 24 h post-infection, spike staining
in vitro = details: African green monkey
SARS-CoV-2 = test: microbe, parasite or virus in culture; assay type: cell-based; details: Severe acute respiratory syndrome coronavirus 2, Vero, 24 h; read-out: IC50, SARS-CoV-2 inhibition
C57BL/6 mice = test: Five-day repeated-dose toxicity study; details: male and female mice; for clinical signs and animal death: IP 10 mg/kg, observed for 6 days; for approximately lethal dose: IP 10 mg/kg/day for 5 days
SARS-CoV = test: microbe, parasite or virus in culture; assay type: cell-based; details: Severe acute respiratory syndrome coronavirus, Vero, 24 h, read-out: IC50, SARS-CoV inhibition
[1] = test system: NA of H5N1 influenza virus; details: cited from earlier work
influenza virus = details: read-out: IC50, anti-influenza virus activity; cited from earlier work
[2] = Pharmacokinetic study in mice; assay type: in vivo; details: for Cmax / Tmax: n = 3
Procedure: Seven-week-old male ICR mice were purchased from Nara Bio Co., Ltd. (Pyungtaek, Korea) and housed under 24 °C, 50% humidity, and 12 h day/night cycle conditions with access to standard chow and drinking water. Mice were acclimated for 1 week before the experiments. All animal procedures were approved by the KRICT Animal Care and Use Committee (ACUC approval number, DDP-7221). A total of 10 mg/kg of compound in a 5:40:55 ratio of DMSO:PEG400:DW was intraperitoneally or orally administered (n = 3). Blood samples were collected at 0.083–24 h after drug administration through the retro-orbital venous plexus and the plasma fraction was separated by centrifugation (15,000 rpm, 3 min). […] Mean plasma concentration–time data were calculated using noncompartmental methods (Phoenix WinNonlin software version 6.4; Pharsight Corporation, Mountain View, CA, USA).

CYP3A4 = CYP3A4 (Homo sapiens, UniProt P08684); test: CYP450 enzyme inhibition, CYP3A4
Chain of CYP3A4 (P08684 whole entry): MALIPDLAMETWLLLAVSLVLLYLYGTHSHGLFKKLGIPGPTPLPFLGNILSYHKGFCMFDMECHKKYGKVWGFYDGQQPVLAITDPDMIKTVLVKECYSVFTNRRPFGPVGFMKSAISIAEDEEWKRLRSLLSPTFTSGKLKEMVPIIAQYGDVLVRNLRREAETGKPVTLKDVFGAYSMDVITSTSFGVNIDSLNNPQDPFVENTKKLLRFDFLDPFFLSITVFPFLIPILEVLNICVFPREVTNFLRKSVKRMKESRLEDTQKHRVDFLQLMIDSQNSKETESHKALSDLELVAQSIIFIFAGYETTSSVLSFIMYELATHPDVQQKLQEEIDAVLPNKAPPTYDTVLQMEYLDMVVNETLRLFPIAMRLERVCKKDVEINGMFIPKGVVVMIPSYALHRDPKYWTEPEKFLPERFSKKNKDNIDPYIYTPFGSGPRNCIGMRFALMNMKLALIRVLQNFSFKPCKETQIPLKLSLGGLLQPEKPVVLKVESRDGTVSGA

[3] = Liver microsomal metabolic stability, mouse; assay type: in vitro ADME; details: mouse liver microsomes 0.5 mg protein/mL, 1 μM, 37 °C
Procedure: (§1) Liver microsome samples (0.5 mg protein/mL) from mouse, rat, and human (Corning, Glendale, AZ, USA) in PBS and the test compound (final concentration 1 μM) were mixed. Following the addition of the NADPH regenerating solution (Corning), the samples were incubated at 37 °C for 30 min. The reaction was stopped by the addition of ice-cold acetonitrile, and the samples were centrifuged at 4000 rpm for 15 min.

CYP2C9 = CYP2C9 (Homo sapiens, UniProt P11712); test: CYP450 enzyme inhibition, CYP2C9
Chain of CYP2C9 (P11712 whole entry): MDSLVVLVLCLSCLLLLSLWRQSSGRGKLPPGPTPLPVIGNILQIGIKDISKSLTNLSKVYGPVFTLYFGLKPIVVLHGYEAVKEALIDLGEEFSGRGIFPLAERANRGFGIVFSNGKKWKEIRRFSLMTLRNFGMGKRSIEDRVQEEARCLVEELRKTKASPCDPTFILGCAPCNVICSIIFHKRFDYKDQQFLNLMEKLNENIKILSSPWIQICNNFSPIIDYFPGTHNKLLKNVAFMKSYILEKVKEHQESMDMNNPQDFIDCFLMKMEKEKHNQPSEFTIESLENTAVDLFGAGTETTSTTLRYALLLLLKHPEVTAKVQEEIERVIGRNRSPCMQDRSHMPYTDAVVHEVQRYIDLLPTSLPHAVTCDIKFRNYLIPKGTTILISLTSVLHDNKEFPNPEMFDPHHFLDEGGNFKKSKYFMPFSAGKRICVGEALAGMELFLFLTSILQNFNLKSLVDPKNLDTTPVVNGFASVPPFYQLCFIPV

CYP2C19 = CYP2C19 (Homo sapiens, UniProt P33261); test: CYP450 enzyme inhibition, CYP2C19
Chain of CYP2C19 (P33261 whole entry): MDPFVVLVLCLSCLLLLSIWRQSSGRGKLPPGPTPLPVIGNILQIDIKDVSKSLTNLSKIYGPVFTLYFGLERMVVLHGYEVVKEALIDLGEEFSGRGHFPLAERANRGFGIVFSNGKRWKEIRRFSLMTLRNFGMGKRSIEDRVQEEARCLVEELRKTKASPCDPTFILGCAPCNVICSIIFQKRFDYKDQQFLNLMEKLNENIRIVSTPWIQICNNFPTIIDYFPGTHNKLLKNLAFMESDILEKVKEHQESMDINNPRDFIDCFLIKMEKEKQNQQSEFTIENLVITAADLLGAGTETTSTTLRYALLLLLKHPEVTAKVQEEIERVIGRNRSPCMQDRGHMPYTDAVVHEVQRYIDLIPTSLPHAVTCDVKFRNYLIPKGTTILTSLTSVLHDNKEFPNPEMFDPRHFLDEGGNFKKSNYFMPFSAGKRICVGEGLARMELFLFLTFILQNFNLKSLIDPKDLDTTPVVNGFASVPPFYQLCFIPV

CYP1A2 = molecular target: T1, CYP1A2 (Homo sapiens, UniProt P05177); test: CYP450 enzyme inhibition, CYP1A2
T1 sequence (P05177 1-516): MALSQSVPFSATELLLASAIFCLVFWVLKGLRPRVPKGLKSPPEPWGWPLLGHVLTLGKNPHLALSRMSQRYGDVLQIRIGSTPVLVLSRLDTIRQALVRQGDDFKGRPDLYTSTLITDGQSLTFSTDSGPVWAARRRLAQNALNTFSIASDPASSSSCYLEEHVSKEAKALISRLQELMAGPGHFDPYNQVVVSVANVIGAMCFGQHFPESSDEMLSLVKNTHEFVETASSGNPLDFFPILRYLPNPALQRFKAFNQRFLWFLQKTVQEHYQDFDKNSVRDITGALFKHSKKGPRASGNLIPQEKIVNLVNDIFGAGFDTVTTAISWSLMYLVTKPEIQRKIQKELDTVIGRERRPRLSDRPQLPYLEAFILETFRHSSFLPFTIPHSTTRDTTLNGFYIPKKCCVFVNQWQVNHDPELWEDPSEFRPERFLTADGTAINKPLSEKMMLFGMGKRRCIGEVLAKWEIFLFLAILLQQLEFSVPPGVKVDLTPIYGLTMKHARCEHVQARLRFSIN

Plasma stability, rat = assay type: in vitro ADME; details: 37 °C
Procedure: (§2) Animal plasma (Innovative Research, Inc., Novi, MI, USA) and test compounds (5 μM) were incubated at 37 °C for 4 h. To prevent the reaction, cold acetonitrile was added.

[4] = Liver microsomal metabolic stability, human; assay type: in vitro ADME; details: human liver microsomes 0.5 mg protein/mL, 1 μM, 37 °C
Procedure: as §1

[5] = Liver microsomal metabolic stability, rat; assay type: in vitro ADME; details: rat liver microsomes 0.5 mg protein/mL, 1 μM, 37 °C
Procedure: as §1

Plasma stability, human = assay type: in vitro ADME; details: 37 °C, read-out: Plasma Stability (% Remaining), Hum
Procedure: as §2

hERG K+ channel = hERG K+ channel (Homo sapiens, UniProt Q12809); test: hERG K+ channel automated planar patch clamp assay
Chain of hERG K+ channel (Q12809 whole entry): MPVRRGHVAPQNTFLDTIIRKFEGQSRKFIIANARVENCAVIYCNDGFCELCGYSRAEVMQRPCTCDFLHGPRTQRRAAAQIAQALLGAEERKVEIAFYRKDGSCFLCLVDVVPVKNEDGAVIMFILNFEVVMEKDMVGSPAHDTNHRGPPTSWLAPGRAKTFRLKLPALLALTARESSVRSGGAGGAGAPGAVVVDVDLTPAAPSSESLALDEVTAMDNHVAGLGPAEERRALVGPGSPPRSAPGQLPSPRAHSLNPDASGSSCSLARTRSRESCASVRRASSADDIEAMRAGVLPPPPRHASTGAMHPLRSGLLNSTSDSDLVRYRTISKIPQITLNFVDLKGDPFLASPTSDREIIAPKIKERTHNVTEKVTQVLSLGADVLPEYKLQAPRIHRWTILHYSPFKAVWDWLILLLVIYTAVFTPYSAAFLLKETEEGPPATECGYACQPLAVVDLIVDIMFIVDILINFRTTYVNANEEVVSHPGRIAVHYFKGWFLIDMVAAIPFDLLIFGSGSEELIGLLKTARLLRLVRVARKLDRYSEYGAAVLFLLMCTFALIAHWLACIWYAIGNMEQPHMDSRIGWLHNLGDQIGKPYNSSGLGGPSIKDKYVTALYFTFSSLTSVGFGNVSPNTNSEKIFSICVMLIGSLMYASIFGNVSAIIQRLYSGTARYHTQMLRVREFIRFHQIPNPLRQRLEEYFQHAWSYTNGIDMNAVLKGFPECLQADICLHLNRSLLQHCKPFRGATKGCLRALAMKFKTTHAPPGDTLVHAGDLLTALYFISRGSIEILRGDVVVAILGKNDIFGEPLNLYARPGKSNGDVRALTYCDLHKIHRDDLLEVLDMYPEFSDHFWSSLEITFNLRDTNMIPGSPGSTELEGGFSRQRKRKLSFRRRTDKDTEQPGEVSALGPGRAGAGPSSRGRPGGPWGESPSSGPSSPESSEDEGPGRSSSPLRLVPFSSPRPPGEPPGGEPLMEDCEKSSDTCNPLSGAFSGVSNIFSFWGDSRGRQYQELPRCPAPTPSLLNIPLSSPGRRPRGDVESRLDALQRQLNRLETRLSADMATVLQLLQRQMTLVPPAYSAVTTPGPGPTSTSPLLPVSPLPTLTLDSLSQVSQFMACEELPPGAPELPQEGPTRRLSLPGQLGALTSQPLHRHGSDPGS

CYP2D6 = CYP2D6 (Homo sapiens, UniProt P10635); test: CYP450 enzyme inhibition, CYP2D6
Chain of CYP2D6 (P10635 whole entry): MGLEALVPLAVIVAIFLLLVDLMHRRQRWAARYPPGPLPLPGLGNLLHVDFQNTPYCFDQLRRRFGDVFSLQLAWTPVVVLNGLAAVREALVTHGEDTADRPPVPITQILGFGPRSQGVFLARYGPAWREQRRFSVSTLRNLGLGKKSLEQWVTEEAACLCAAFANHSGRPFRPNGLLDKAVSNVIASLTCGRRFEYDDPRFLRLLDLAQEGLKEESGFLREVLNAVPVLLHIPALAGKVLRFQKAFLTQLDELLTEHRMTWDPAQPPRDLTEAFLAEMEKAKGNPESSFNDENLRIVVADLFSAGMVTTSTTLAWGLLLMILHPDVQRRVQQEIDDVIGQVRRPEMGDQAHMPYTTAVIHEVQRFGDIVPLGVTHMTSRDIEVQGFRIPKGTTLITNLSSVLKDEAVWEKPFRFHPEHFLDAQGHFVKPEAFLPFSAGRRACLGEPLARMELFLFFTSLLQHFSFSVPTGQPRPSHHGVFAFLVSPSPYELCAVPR

[6] = male, ICR, mouse, plasma, IP 10 mg/kg
[7] = male, ICR, mouse, plasma, PO 10 mg/kg

CCCC(=O)c1c(O)c(CC2=C(O)C(C)(C)C(O)=C(C(C)=O)C2=O)c(O)c(CC2=C(O)C(C)(C)C(O)=C(C(C)=O)C2=O)c1O [filixic acid ABA]
IC50 (SARS-CoV-2 Mpro; serially diluted compounds 3.125–100 μM, mean ± SEM, read-out: IC50, SARS-CoV-2 Mpro (3CL) activity): 39.6 ± 1.09 µM
IC50 (MERS-CoV): 2.68 ± 0.1 µM
CC50 (in vitro): > 50 µM
IC50 (SARS-CoV-2): 25.9 ± 0.81 µM
clinical signs and animal death (C57BL/6 mice): No abnormal clinical signs and animal death
approximately lethal dose (C57BL/6 mice): > 10 mg/kg
IC50 (SARS-CoV): 4.56 ± 0.21 µM
IC50 [1]: 29.6 ± 2.48 µM

CCCC(=O)c1c(O)c(CC2=C(O)C(C)(C)C(O)=C(C(C)=O)C2=O)c(O)c(Cc2c(O)c(CC3=C(O)C(C)(C)C(O)=C(C(C)=O)C3=O)c(O)c(C(=O)CCC)c2O)c1O [dryocrassin ABBA, Dryocrassin ABBA]
IC50 (influenza virus): 16.5 µM
AUC ([2]; IP 10 mg/kg, n = 3, 10 mg/kg): 65960 ± 8630 ng·h/mL
Cmax [2, 6]: 12800 ± 1790 ng/mL
Tmax [2, 6]: 1.17 ± 0.76 h
half-life ([2]; male, ICR, mouse, plasma, IP 10 mg/kg, n = 3, read-out: T1/2 (converted)): 5.5 ± 0.56 h
Cmax [2, 7]: 3640 ± 570 ng/mL
Tmax [2, 7]: 0.67 ± 0.29 h
half-life ([2]; male, ICR, mouse, plasma, PO 10 mg/kg, n = 3, read-out: T1/2 (converted)): 12.6 ± 3.76 h
AUC ([2]; male, ICR, mouse, plasma, ip, 10 mg/kg, IP 10 mg/kg, n = 3, read-out: AUC): 65000 ng·h/mL
AUC ([2]; male, ICR, mouse, plasma, other: intraperitoneal and oral (range over both arms), 10 mg/kg, in vivo, span over IP and PO 10 mg/kg (abstract), read-out: plasma exposure (AUC)): 19300 to 65000 ng·h/mL
half-life ([2]; male, ICR, mouse, plasma, other: intraperitoneal and oral (range over both arms), in vivo, span over IP and PO 10 mg/kg (abstract), read-out: half-life): 5.5 to 12.6 h
AUC ([2]; male, ICR, mouse, plasma, po, 10 mg/kg, PO 10 mg/kg, n = 3, read-out: AUC): 19300 ± 1420 ng·h/mL
IC50 (CYP3A4): 8.33 µM
IC50 (SARS-CoV-2 Mpro): 46.5 ± 1.1 µM
MS (%) (Remaining after 30 min), Mice [3]: 68.3 ± 2.1%
IC50 (MERS-CoV): 1.31 ± 0.07 µM
CC50 (in vitro): > 50 µM
IC50 (CYP2C9): 0.4 µM
IC50 (SARS-CoV-2): 22.4 ± 0.73 µM
clinical signs and animal death (C57BL/6 mice): No abnormal clinical signs and animal death
approximately lethal dose (C57BL/6 mice): > 10 mg/kg
IC50 (CYP2C19): 16.1 µM
IC50 (SARS-CoV): 0.8 ± 0.07 µM
IC50 (CYP1A2): 14.7 µM
remaining at 4 h, 5 μM (Plasma stability, rat): 67 ± 7.29%
MS (%) (Remaining after 30 min), Hum [4]: >99%
MS (%) (Remaining after 30 min), Rat [5]: >99%
remaining at 4 h, 5 μM (Plasma stability, human): 29.7 ± 8.37%
inhibition at 10 µM (hERG K+ channel): 7.27%
IC50 [1]: 18.6 ± 4.53 µM
IC50 (CYP2D6): 13.5 µM
